In ChEMBL document CHEMBL2177061, “Factors influencing the specificity of inhibitor binding to the human and malaria parasite dihydroorotate dehydrogenases” (J Med Chem, 2012):
Positions count from the first letter of the chain named.

Assays:
[1] = target: T1, Dihydroorotate dehydrogenase (Plasmodium falciparum, UniProt Q54A96); test: Inhibition of Plasmodium falciparum […] dehydrogenase expressed in Escherichia coli BL21(DE3) using […] as substrate by DCIP-based colorimetric analysis
T1 sequence (Q54A96 whole entry): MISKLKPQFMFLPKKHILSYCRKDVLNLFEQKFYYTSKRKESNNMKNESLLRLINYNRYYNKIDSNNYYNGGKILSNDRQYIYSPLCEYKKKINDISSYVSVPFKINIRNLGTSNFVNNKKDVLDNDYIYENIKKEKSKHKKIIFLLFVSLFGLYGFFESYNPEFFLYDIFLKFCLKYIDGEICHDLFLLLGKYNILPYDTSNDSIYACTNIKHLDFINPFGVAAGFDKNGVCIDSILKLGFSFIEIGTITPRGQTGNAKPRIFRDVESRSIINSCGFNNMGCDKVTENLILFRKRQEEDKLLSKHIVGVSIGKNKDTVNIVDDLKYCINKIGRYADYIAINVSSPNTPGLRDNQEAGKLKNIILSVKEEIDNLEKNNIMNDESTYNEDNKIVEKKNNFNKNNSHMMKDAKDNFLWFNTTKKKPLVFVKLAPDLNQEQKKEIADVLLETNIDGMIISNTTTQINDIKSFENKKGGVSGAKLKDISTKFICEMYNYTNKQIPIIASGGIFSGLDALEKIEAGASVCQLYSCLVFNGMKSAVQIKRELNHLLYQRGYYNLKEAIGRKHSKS

[2] = target: Dihydroorotate dehydrogenase (quinone), mitochondrial (Homo sapiens, UniProt Q02127); test: Inhibition of human […] dehydrogenase expressed in Escherichia coli BL21(DE3) using […] as substrate by DCIP-based colorimetric analysis
[3] = system: T2, Dihydroorotate dehydrogenase (quinone), mitochondrial (Plasmodium falciparum (isolate 3D7)), Q08210 [C276F]; test: Inhibition of Plasmodium falciparum […] dehydrogenase C276F mutant expressed in Escherichia coli BL21(DE3) using […] as substrate at 100 uM by DCIP-based colorimetric analysis
T2 sequence (whole entry): T1 sequence (Q54A96 whole entry) with C276F

[4] = system: T3, Dihydroorotate dehydrogenase (quinone), mitochondrial (Plasmodium falciparum (isolate 3D7)), Q08210 [F188Y]; test: Inhibition of Plasmodium falciparum […] dehydrogenase F188Y mutant expressed in Escherichia coli BL21(DE3) using […] as substrate at 100 uM by DCIP-based colorimetric analysis
T3 sequence (whole entry): T1 sequence (Q54A96 whole entry) with F188Y

[5] = species: Homo sapiens; test: Inhibition of human […] dehydrogenase H56A mutant expressed in Escherichia coli BL21(DE3) using […] as substrate at 100 uM by DCIP-based colorimetric analysis
[6] = species: Homo sapiens; test: Inhibition of human […] dehydrogenase Y147F mutant expressed in Escherichia coli BL21(DE3) using […] as substrate at 100 uM by DCIP-based colorimetric analysis
[7] = system: T4, Dihydroorotate dehydrogenase (quinone), mitochondrial (Plasmodium falciparum (isolate 3D7)), Q08210 [C276Y]; test: Inhibition of Plasmodium falciparum […] dehydrogenase C276Y mutant expressed in Escherichia coli BL21(DE3) using […] as substrate at 100 uM by DCIP-based colorimetric analysis
T4 sequence (whole entry): T1 sequence (Q54A96 whole entry) with C276Y

[8] = species: Homo sapiens; test: Inhibition of human […] dehydrogenase Y147C mutant expressed in Escherichia coli BL21(DE3) using […] as substrate at 100 uM by DCIP-based colorimetric analysis
[9] = system: Plasmodium falciparum; test: Ratio of IC50 for Plasmodium falciparum […] dehydrogenase C276A mutant to IC50 for Plasmodium falciparum wild type […] dehydrogenase
[10] = species: Homo sapiens; test: Inhibition of human […] dehydrogenase Y147A mutant expressed in Escherichia coli BL21(DE3) using […] as substrate at 100 uM by DCIP-based colorimetric analysis
[11] = system: T5, Dihydroorotate dehydrogenase (quinone), mitochondrial (Plasmodium falciparum (isolate 3D7)), Q08210 [H185A]; test: Inhibition of Plasmodium falciparum […] dehydrogenase H185A mutant expressed in Escherichia coli BL21(DE3) using […] as substrate at 100 uM by DCIP-based colorimetric analysis
T5 sequence (whole entry): T1 sequence (Q54A96 whole entry) with H185A

[12] = system: Plasmodium falciparum; test: Ratio of IC50 for Plasmodium falciparum […] dehydrogenase H185A mutant to IC50 for Plasmodium falciparum wild type […] dehydrogenase
[13] = system: Plasmodium falciparum; test: Ratio of IC50 for Plasmodium falciparum […] dehydrogenase F188A mutant to IC50 for Plasmodium falciparum wild type […] dehydrogenase
[14] = system: Plasmodium falciparum; test: Ratio of IC50 for Plasmodium falciparum […] dehydrogenase C276F mutant to IC50 for Plasmodium falciparum wild type […] dehydrogenase
[15] = system: Plasmodium falciparum; test: Ratio of IC50 for Plasmodium falciparum […] dehydrogenase C276Y mutant to IC50 for Plasmodium falciparum wild type […] dehydrogenase
[16] = species: Homo sapiens; test: Ratio of IC50 for human dihydrofolate dehydrogenase Y147F mutant to IC50 for human wild type dihydrofolate dehydrogenase
[17] = species: Homo sapiens; test: Ratio of IC50 for human dihydrofolate dehydrogenase Y147A mutant to IC50 for human wild type dihydrofolate dehydrogenase
[18] = species: Homo sapiens; test: Ratio of IC50 for human dihydrofolate dehydrogenase Y147C mutant to IC50 for human wild type dihydrofolate dehydrogenase
[19] = species: Homo sapiens; test: Ratio of IC50 for human […] dehydrogenase H56A mutant to IC50 for human wild type […] dehydrogenase

Chain of Dihydroorotate dehydrogenase (quinone), mitochondrial (Q02127 whole entry): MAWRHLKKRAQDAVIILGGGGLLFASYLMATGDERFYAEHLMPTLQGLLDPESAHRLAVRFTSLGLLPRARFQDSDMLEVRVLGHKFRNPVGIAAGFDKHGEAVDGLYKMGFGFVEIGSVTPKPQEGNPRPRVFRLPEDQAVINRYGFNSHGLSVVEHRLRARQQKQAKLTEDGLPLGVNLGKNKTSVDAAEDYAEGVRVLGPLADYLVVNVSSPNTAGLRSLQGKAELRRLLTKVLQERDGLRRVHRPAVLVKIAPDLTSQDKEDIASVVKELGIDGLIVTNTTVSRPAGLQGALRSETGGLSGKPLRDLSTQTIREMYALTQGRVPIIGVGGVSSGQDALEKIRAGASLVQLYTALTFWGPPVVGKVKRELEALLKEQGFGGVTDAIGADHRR

With Cc1cc(O)n2nc(SCc3c(Cl)cccc3Cl)nc2n1 the IC50 [1] was 3.5 µM and the IC50 [2] was 18 µM.

In the case of Cc1cc(C)cc(CSc2nc3nc(C)cc(O)n3n2)c1, the IC50 [1] is reported as 19 µM and the IC50 [2] is reported as 30 µM.

Work on Cc1cc(N)n2nc(SCc3ccccc3)nc2n1 yielded an IC50 [1] greater than 100 µM and an IC50 [2] greater than 100 µM.

Molecule Cc1cc(NCc2ccccc2)n2nc(SCc3ccccc3)nc2n1 has an IC50 [1] greater than 100 µM and an IC50 [2] greater than 100 µM.

Molecule Cc1cc(O)n2nc(SCc3ccccc3[N+](=O)[O-])nc2n1 has an IC50 [1] greater than 100 µM and an IC50 [2] of 9.5 µM.

With Cc1cc(=O)n2nc(SCc3ccc(Cl)cc3)nc2[nH]1 the inhibition [3] was less than 50%, the IC50 [1] was 1 µM and the inhibition [4] was less than 50%. The inhibition [5] was less than 50%, the inhibition [6] was less than 50% and the inhibition [7] was less than 50%. It also gave an inhibition [8] of less than 50%, a Ratio IC50 [9] of 1.5 and an IC50 [2] of 39 µM. The inhibition [10] was less than 50% and the inhibition [11] was less than 50%.

Work on Cc1cc(Nc2ccc3ccccc3c2)n2ncnc2n1 yielded a Ratio IC50 [12] of 19, a Ratio IC50 [13] of 29 and a Ratio IC50 [14] of 2.3. The Ratio IC50 [9] was 0.69 and the Ratio IC50 [15] was 3.5.

Work on Cc1ccc(CSc2nc3[nH]c(C)cc(=O)n3n2)cc1 yielded an IC50 [1] of 26 µM and an IC50 [2] of 46 µM.

Cc1cc(N)n2nc(SCc3ccc(Cl)c(Cl)c3)nc2n1 gave an IC50 [1] greater than 100 µM and an IC50 [2] greater than 100 µM.

Cc1cc(O)n2nc(SCc3cc(Cl)ccc3Cl)nc2n1 gave an inhibition [3] of less than 50%, an IC50 [1] of 11 µM and a Ratio IC50 [16] of 1.1. It also gave an inhibition [4] of less than 50%, a Ratio IC50 [17] of 20 and a Ratio IC50 [18] of 14. For the same molecule, the inhibition [7] was less than 50%, the Ratio IC50 [19] was 7.1 and the Ratio IC50 [9] was 3.7. For the same molecule, the IC50 [2] was 0.051 µM and the inhibition [11] was less than 50%.

Cc1cc(O)n2nc(SCc3ccc(Br)cc3)nc2n1 was tested, and the IC50 [1] was 33 µM and the IC50 [2] was 32 µM.

Cc1cc(O)n2nc(SCc3ccc(Cl)c(Cl)c3)nc2n1 was tested, and the inhibition [3] was less than 50%, the IC50 [1] was 1.9 µM and the Ratio IC50 [16] was 8.8. The inhibition [4] was less than 50%, the inhibition [5] was less than 50% and the inhibition [7] was less than 50%. The inhibition [8] was less than 50%, the Ratio IC50 [9] was 2 and the IC50 [2] was 6.5 µM. It also gave an inhibition [10] of less than 50% and an inhibition [11] of less than 50%.

In the case of Cc1cc(O)n2nc(SCc3ccccc3)nc2n1, the IC50 [1] is reported as 62 µM and the IC50 [2] is reported as 89 µM.

For COc1ccc(CSc2nc3nc(C)cc(O)n3n2)cc1, the IC50 [1] was 21 µM and the IC50 [2] was 63 µM.

Cc1cc(O)n2nc(SCc3ccccc3Cl)nc2n1 was tested, and the IC50 [1] was 28 µM and the IC50 [2] was 12 µM.

CCc1cc(O)n2nc(SCc3ccc(Cl)cc3)nc2n1 showed an IC50 [1] greater than 100 µM and an IC50 [2] of 13 µM.

Cc1cc(O)n2nc(SCc3cccc(Cl)c3)nc2n1 showed an IC50 [1] of 5.6 µM and an IC50 [2] of 29 µM.
